Source: paper PMC7822474, “Repurposing the McoTI-II Rigid Molecular Scaffold in to Inhibitor of ‘Papain Superfamily’ Cysteine Proteases” (Pharmaceuticals, 2020)
Each block holds one compound with its values, some of them ahead of it. Where no end group is shown, it is not given here.

Tests used:
papain [1] = details: E-64 and its derivatives; cited from earlier work
papain [2] = test: Proteolytic activity assay, BSA digestion by papain on SDS-PAGE; type: biochemical; details: BSA 1.0 mg/mL, 0.1 M sodium acetate pH 5.5, 0.1% SDS, E:S 1:10, 40 °C, 8 min, preincubated with papain
Procedure: The protein substrate, BSA, at a concentration of 1.0 mg/mL in 0.1 M sodium acetate buffer (pH 5.5) containing 0.1% SDS was incubated with papain, papain preincubated with E-64, and papain preincubated with Mco-CPI protein. The papain enzyme used was pre-activated with 2 mM dithiothreitol. The ratio of enzyme to the substrate (E:S) was maintained at 1:10. The digestion was allowed to be carried at 40 °C for 8 min. This method was adapted from Zucker et al., 1985 [59]. The degradation products of each reaction were analysed on 12% SDS-PAGE gel.

trypsin [3] = target: trypsin
trypsin [4] = test: Inhibition of trypsin by recombinant McoTI-II (ZFR-AMC substrate); type: biochemical
trypsin [5] = details: cited from earlier work
Description: McoTI-II is a stable cyclic peptide found in seeds of the plant Momordica cochinchinensis. It belongs to the trypsin inhibitor subfamily of cyclotides and has been the most preferred framework for grafting and engineering novel biological activities. […] A range of substitutions in the trypsin inhibitory reactive site (loop 1) and the P1 residue have been used to develop a series of McoTI-I analogs with specificity towards alternate proteases with moderate affinity. […] Therefore, we expect that a modification involving a backbone cyclization would lead to further improvement in the e ...

Compound: CC(C)C[C@H](NC(=O)[C@H]1O[C@@H]1C(=O)O)C(=O)NCCCCN=C(N)N [E-64]
IC50 against papain (in words) (papain [1]): nanomolar range | inhibition of papain proteolytic activity on BSA (in words) (papain [2]): completely inhibit the proteolytic activity of papain with no digestion products observed on the gel

inhibition of trypsin activity on ZFR-AMC (fluorescence), 50 mM Tris-HCl pH 8.0, 50 mM NaCl, 5 mM CaCl2 (trypsin [3]): 2.12 µM
Compound: McoTI-II (Momordica cochinchinensis trypsin inhibitor-II), recombinant protein with tags (from UniProt P82409 1-34) (natural protein)

IC50 (trypsin [4]; ZFR-AMC substrate, 50 mM Tris-HCl pH 8.0, 50 mM NaCl, 5 mM CaCl2, three technical replicates, read-out: IC50 against trypsin): 2.12 µM
Compound: McoTI-II recombinant protein: McoTI-II protein with tags, recombinantly expressed as starting control (SGSDGGVCPKILKKCRRDSDCPGACICRGNGYCG; ends and bridges not checked; also: with tags (recombinant); UniProt P82409 1-34, looked up)
% trypsin inhibition, concentration dependence (in words) (trypsin [4]; Supplementary Figure S6E): An increase in % trypsin inhibition

Compound: McoTI-II: stable cyclic peptide found in seeds of the plant Momordica cochinchinensis (cyclo(SGSDGGVCPKILKKCRRDSDCPGACICRGNGYCG); disulfide (positions not given here); ends not checked; also: three disulfides, pairing not given here; UniProt P82409 1-34, looked up)
trypsin inhibition range (in words) (trypsin [5]; McoTI-II purified from plant sources or chemically synthesized as a cyclic molecule): sub-nM range | trypsin inhibitory activity (in words) (trypsin [5]; natural McoTI-II): potent (sub-nM)
